The text below walks through data of US20250353891A1 (MEDIMMUNE LIMITED, priority 2022, published 2025).

Assay [1] deals with human GLP-1 receptor (hGLP-1R) (Homo sapiens, UniProt P43220). The assay can be described thus: cAMP production (HTRF) in CHO cells expressing hGLP-1R. Format: cell-based. More on the design: expressed in transfected cells. Conditions: for EC50: Table 6, peptides modified at position 17, cAMP in CHO hGLP-1R cells, geometric mean, read-out: hGLP-1R EC50; for % Relative Potency Ratio: Table 6, % GLP-1R activity relative to GLP-1 / % GlucR activity relative to glucagon. An outline of the steps: (§1)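 Potency values represent EC50 from 4-parameter logistic curves of HTRF % Delta F signal. Receptor-expressing CHO cells (hGCGR 2×10^5 cells/mL, hGLP-1R 1×10^5 cells/mL) were exposed for 30 min at room temperature before two-step cAMP detection.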
Chain of human GLP-1 receptor (hGLP-1R) (P43220 24-463): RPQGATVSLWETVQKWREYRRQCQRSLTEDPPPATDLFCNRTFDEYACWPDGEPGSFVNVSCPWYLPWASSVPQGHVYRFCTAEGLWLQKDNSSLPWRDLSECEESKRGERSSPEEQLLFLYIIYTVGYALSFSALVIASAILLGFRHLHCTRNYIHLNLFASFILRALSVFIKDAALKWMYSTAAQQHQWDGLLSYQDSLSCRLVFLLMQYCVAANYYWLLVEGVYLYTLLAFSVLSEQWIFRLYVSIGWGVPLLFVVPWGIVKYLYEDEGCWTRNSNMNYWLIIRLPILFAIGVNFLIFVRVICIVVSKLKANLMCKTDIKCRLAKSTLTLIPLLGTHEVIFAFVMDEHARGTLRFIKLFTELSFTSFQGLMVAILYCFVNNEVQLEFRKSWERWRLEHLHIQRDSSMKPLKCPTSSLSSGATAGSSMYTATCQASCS
In general terms: cAMP levels reflect the balance of adenylyl cyclase and phosphodiesterase activity.

Assay [2] has as its target human glucagon receptor (hGCGR) (Homo sapiens, UniProt P47871). The assay can be described thus: cAMP production (HTRF) in CHO cells expressing hGCGR. Format: cell-based. More on the design: expressed in transfected cells. Conditions: Table 6, peptides modified at position 17; cAMP in CHO hGCGR cells; geometric mean; read-out: hGluc-R EC50. The method, boiled down:
as §1

Starred links: 1 amine or outer side, 2 acyl side, 3 side chain; linkers in the order of their positions; H or OH if unused. Non-standard residues stand in square brackets, D forms with d. Residues, ends and D or L forms follow the SMILES beside them. Groups on a side chain read outwards from the residue. *: point of attachment. C20 diacid = O=C(O)CCCCCCCCCCCCCCCCCCC(=O)*; γGlu = O=C(O)[C@H](CCC(=O)[*:2])N[*:1]; αMeF = C[C@](N)(Cc1ccccc1)C(=O)O; AEEA = NCCOCCOCC(=O)O; Aib = CC(C)(N)C(=O)O

Chain of human glucagon receptor (hGCGR) (P47871 26-477): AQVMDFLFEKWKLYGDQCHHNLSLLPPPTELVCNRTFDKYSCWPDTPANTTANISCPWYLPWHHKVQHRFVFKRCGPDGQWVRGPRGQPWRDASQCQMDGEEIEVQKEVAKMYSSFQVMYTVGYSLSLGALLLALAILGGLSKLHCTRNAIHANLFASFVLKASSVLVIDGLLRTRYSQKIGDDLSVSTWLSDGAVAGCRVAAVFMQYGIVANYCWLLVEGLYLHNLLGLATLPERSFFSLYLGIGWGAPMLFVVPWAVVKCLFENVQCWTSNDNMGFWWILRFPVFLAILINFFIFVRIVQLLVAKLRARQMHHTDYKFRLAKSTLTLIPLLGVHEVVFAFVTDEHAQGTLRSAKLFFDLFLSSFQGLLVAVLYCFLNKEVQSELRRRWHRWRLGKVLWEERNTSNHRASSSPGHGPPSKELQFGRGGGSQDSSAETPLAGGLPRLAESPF

Take `CC(C)C[C@H](NC(=O)[C@H](Cc1c[nH]c2ccccc12)NC(=O)[C@H](CC(C)C)NC(=O)[C@@H](NC(=O)[C@H](Cc1ccccc1)NC(=O)[C@H](CC(=O)O)NC(=O)[C@H](CCCNC(=N)N)NC(=O)[C@H](C)NC(=O)[C@H](CCCNC(=N)N)NC(=O)[C@H](CCCCNC(=O)COCCOCCNC(=O)COCCOCCNC(=O)CC[C@H](NC(=O)CCCCCCCCCCCCCCCCCCC(=O)O)C(=O)O)NC(=O)[C@H](CCCCN)NC(=O)[C@H](CC(=O)O)NC(=O)[C@H](CC(C)C)NC(=O)[C@](C)(Cc1ccccc1)NC(=O)[C@H](CCCCN)NC(=O)[C@H](CO)NC(=O)[C@@H](NC(=O)[C@H](CC(=O)O)NC(=O)[C@H](CO)NC(=O)[C@@H](NC(=O)[C@H](Cc1ccccc1)NC(=O)[C@@H](NC(=O)CNC(=O)[C@H](CCC(N)=O)NC(=O)C(C)(C)NC(=O)[C@@H](N)Cc1c[nH]cn1)[C@@H](C)O)[C@@H](C)O)C(C)C)C(C)C)C(=O)N[C@@H](CC(C)C)C(=O)NC(C)(C)C(=O)N[C@@H](CCC(=O)O)C(N)=O` [Peptide 451] (H-H[Aib]QGTFTSDVSK[αMeF]LDKK([AEEA-AEEA-γGlu-C20 diacid])RARDFVLWLL[Aib]E-NH2; N-terminus assumed): in assay [1], the EC50 worked out at 0.895 nM and the “% Relative Potency Ratio” value came to 1.1. In addition, in assay [2], the half-maximal effective concentration (EC50) worked out at 0.503 nM.
Turning to `CC(C)C[C@H](NC(=O)[C@H](C)NC(=O)[C@H](CCCNC(=N)N)NC(=O)[C@H](CCCCNC(=O)COCCOCCNC(=O)COCCOCCNC(=O)CC[C@H](NC(=O)CCCCCCCCCCCCCCCCCCC(=O)O)C(=O)O)NC(=O)[C@H](CCCCN)NC(=O)[C@H](CC(=O)O)NC(=O)[C@H](CC(C)C)NC(=O)[C@](C)(Cc1ccccc1)NC(=O)[C@H](CCCCN)NC(=O)[C@H](CO)NC(=O)[C@@H](NC(=O)[C@H](CC(=O)O)NC(=O)[C@H](CO)NC(=O)[C@@H](NC(=O)[C@H](Cc1ccccc1)NC(=O)[C@@H](NC(=O)CNC(=O)[C@H](CCC(N)=O)NC(=O)C(C)(C)NC(=O)[C@@H](N)Cc1c[nH]cn1)[C@@H](C)O)[C@@H](C)O)C(C)C)C(=O)N[C@@H](CC(=O)O)C(=O)N[C@@H](Cc1ccccc1)C(=O)N[C@H](C(=O)N[C@@H](CCCNC(=N)N)C(=O)N[C@@H](Cc1c[nH]c2ccccc12)C(=O)N[C@@H](CC(C)C)C(=O)N[C@@H](CC(C)C)C(=O)NC(C)(C)C(=O)N[C@@H](CCC(=O)O)C(N)=O)C(C)C` [Peptide 452] (H-H[Aib]QGTFTSDVSK[αMeF]LDKK([AEEA-AEEA-γGlu-C20 diacid])RALDFVRWLL[Aib]E-NH2), in assay [1], the concentration for a half-maximal effect (EC50) amounted to 0.495 nM and the “% Relative Potency Ratio” value came to 0.6. Besides, the EC50 in assay [2] worked out at 0.151 nM.
For `CC(C)C[C@H](NC(=O)[C@H](Cc1c[nH]c2ccccc12)NC(=O)[C@H](CCCNC(=N)N)NC(=O)[C@@H](NC(=O)[C@H](Cc1ccccc1)NC(=O)[C@H](CC(=O)O)NC(=O)[C@H](CCC(N)=O)NC(=O)[C@H](C)NC(=O)[C@H](CCCNC(=N)N)NC(=O)[C@H](CCCCNC(=O)COCCOCCNC(=O)COCCOCCNC(=O)CC[C@H](NC(=O)CCCCCCCCCCCCCCCCCCC(=O)O)C(=O)O)NC(=O)[C@H](CCCCN)NC(=O)[C@H](CC(=O)O)NC(=O)[C@H](CC(C)C)NC(=O)[C@](C)(Cc1ccccc1)NC(=O)[C@H](CCCCN)NC(=O)[C@H](CO)NC(=O)[C@@H](NC(=O)[C@H](CC(=O)O)NC(=O)[C@H](CO)NC(=O)[C@@H](NC(=O)[C@H](Cc1ccccc1)NC(=O)[C@@H](NC(=O)CNC(=O)[C@H](CCC(N)=O)NC(=O)C(C)(C)NC(=O)[C@@H](N)Cc1c[nH]cn1)[C@@H](C)O)[C@@H](C)O)C(C)C)C(C)C)C(=O)N[C@@H](CC(C)C)C(=O)N[C@@H](CCC(=O)O)C(=O)NC(C)(C)C(=O)NCC(N)=O` [Peptide 453], in assay [1], the 50% effective concentration (EC50) amounted to 0.17 nM and the “% Relative Potency Ratio” value is recorded as 1.9. The EC50 in assay [2] came out at 0.162 nM.
On to `CC(C)C[C@H](NC(=O)[C@H](Cc1c[nH]c2ccccc12)NC(=O)[C@H](CCCNC(=N)N)NC(=O)[C@@H](NC(=O)[C@H](Cc1ccccc1)NC(=O)[C@H](CC(=O)O)NC(=O)[C@H](CCC(N)=O)NC(=O)[C@H](C)NC(=O)[C@H](CCCNC(=N)N)NC(=O)[C@H](CCCCNC(=O)COCCOCCNC(=O)COCCOCCNC(=O)CC[C@H](NC(=O)CCCCCCCCCCCCCCCCCCC(=O)O)C(=O)O)NC(=O)[C@H](CCCCN)NC(=O)[C@H](CC(=O)O)NC(=O)[C@H](CC(C)C)NC(=O)[C@](C)(Cc1ccccc1)NC(=O)[C@H](CCCCN)NC(=O)[C@H](CO)NC(=O)[C@@H](NC(=O)[C@H](CC(=O)O)NC(=O)[C@H](CO)NC(=O)[C@@H](NC(=O)[C@H](Cc1ccccc1)NC(=O)[C@@H](NC(=O)CNC(=O)[C@H](CCC(N)=O)NC(=O)C(C)(C)NC(=O)[C@@H](N)Cc1c[nH]cn1)[C@@H](C)O)[C@@H](C)O)C(C)C)C(C)C)C(=O)N[C@@H](CCC(=O)O)C(=O)N[C@@H](C)C(=O)NC(C)(C)C(=O)NCC(N)=O` [Peptide 454] (H-H[Aib]QGTFTSDVSK[αMeF]LDKK([AEEA-AEEA-γGlu-C20 diacid])RAQDFVRWLEA[Aib]G-NH2), for which, in assay [1], the EC50 was 0.173 nM and the “% Relative Potency Ratio” value was determined as 3.1. Further, the 50% effective concentration (EC50) in assay [2] stood at 0.274 nM.
As for `CC(C)C[C@H](NC(=O)[C@H](Cc1c[nH]c2ccccc12)NC(=O)[C@H](CCCNC(=N)N)NC(=O)[C@@H](NC(=O)[C@H](Cc1ccccc1)NC(=O)[C@H](CC(=O)O)NC(=O)[C@H](CCC(N)=O)NC(=O)[C@H](C)NC(=O)[C@H](CCCNC(=N)N)NC(=O)[C@H](CCCCNC(=O)COCCOCCNC(=O)COCCOCCNC(=O)CC[C@H](NC(=O)CC[C@H](NC(=O)CCCCCCCCCCCCCCCCCCC(=O)O)C(=O)O)C(=O)O)NC(=O)[C@H](CCCCN)NC(=O)[C@H](CC(=O)O)NC(=O)[C@H](CC(C)C)NC(=O)[C@](C)(Cc1ccccc1)NC(=O)[C@H](CCCCN)NC(=O)[C@H](CO)NC(=O)[C@@H](NC(=O)[C@H](CC(=O)O)NC(=O)[C@H](CO)NC(=O)[C@@H](NC(=O)[C@H](Cc1ccccc1)NC(=O)[C@@H](NC(=O)CNC(=O)[C@H](CCC(N)=O)NC(=O)C(C)(C)NC(=O)[C@@H](N)Cc1c[nH]cn1)[C@@H](C)O)[C@@H](C)O)C(C)C)C(C)C)C(=O)N[C@@H](CC(C)C)C(=O)NC(C)(C)C(=O)N[C@@H](CCC(=O)O)C(N)=O` [Peptide 455] (H-H[Aib]QGTFTSDVSK[αMeF]LDKK([AEEA-AEEA-γGlu-γGlu-C20 diacid])RAQDFVRWLL[Aib]E-NH2), the EC50 came to 0.127 nM in assay [1] and 0.114 nM in assay [2]. The “% Relative Potency Ratio” value in assay [1] is on record as 1.8.
For `CC(C)C[C@H](NC(=O)[C@H](Cc1c[nH]c2ccccc12)NC(=O)[C@H](CCCNC(=N)N)NC(=O)[C@@H](NC(=O)[C@H](Cc1ccccc1)NC(=O)[C@H](CC(=O)O)NC(=O)[C@H](CCC(N)=O)NC(=O)[C@H](C)NC(=O)[C@H](CCCNC(=N)N)NC(=O)[C@H](CCCCNC(=O)COCCOCCNC(=O)COCCOCCNC(=O)CC[C@H](NC(=O)CCCCCCCCCCCCCCCCCCC(=O)O)C(=O)O)NC(=O)[C@H](CCCNC(=N)N)NC(=O)[C@H](CC(=O)O)NC(=O)[C@H](CC(C)C)NC(=O)[C@](C)(Cc1ccccc1)NC(=O)[C@H](CCCCN)NC(=O)[C@H](CO)NC(=O)[C@@H](NC(=O)[C@H](CC(=O)O)NC(=O)[C@H](CO)NC(=O)[C@@H](NC(=O)[C@H](Cc1ccccc1)NC(=O)[C@@H](NC(=O)CNC(=O)[C@H](CCC(N)=O)NC(=O)C(C)(C)NC(=O)[C@@H](N)Cc1c[nH]cn1)[C@@H](C)O)[C@@H](C)O)C(C)C)C(C)C)C(=O)N[C@@H](CC(C)C)C(=O)NC(C)(C)C(=O)N[C@@H](CCC(=O)O)C(N)=O` [Peptide 456] (H-H[Aib]QGTFTSDVSK[αMeF]LDRK([AEEA-AEEA-γGlu-C20 diacid])RAQDFVRWLL[Aib]E-NH2; N-terminus assumed), the EC50 stood at 0.133 nM in assay [1] and 0.0803 nM in assay [2]. The “% Relative Potency Ratio” value in assay [1] turned out to be 1.2.
As to `CC(C)C[C@H](NC(=O)[C@H](Cc1c[nH]c2ccccc12)NC(=O)[C@H](CCC(N)=O)NC(=O)[C@@H](NC(=O)[C@H](Cc1ccccc1)NC(=O)[C@H](CC(=O)O)NC(=O)[C@H](CCCNC(=N)N)NC(=O)[C@H](C)NC(=O)[C@H](CCCNC(=N)N)NC(=O)[C@H](CCCCNC(=O)COCCOCCNC(=O)COCCOCCNC(=O)CC[C@H](NC(=O)CCCCCCCCCCCCCCCCCCC(=O)O)C(=O)O)NC(=O)[C@@H](NC(=O)[C@H](CC(=O)O)NC(=O)[C@H](CC(C)C)NC(=O)[C@](C)(Cc1ccccc1)NC(=O)[C@H](CCCCN)NC(=O)[C@H](CO)NC(=O)[C@@H](NC(=O)[C@H](CC(=O)O)NC(=O)[C@H](CO)NC(=O)[C@@H](NC(=O)[C@H](Cc1ccccc1)NC(=O)[C@@H](NC(=O)CNC(=O)[C@H](CCC(N)=O)NC(=O)C(C)(C)NC(=O)[C@@H](N)Cc1c[nH]cn1)[C@@H](C)O)[C@@H](C)O)C(C)C)[C@@H](C)O)C(C)C)C(=O)N[C@@H](CC(C)C)C(=O)N[C@@H](CCC(=O)O)C(=O)NC(C)(C)C(=O)NCC(N)=O` [Peptide 457], the concentration for a half-maximal effect (EC50) in assay [1] came to 0.109 nM; in assay [2], 0.203 nM. For the same compound, the “% Relative Potency Ratio” value in assay [1] came to 3.7.

The term EC50 denotes the concentration needed to bring the measured effect to its halfway point.
